Experimental findings from patent US9616037B2, “Aryl-phenyl-sulfonamido-cycloalkyl compounds and their use” (PIMCO 2664 Limited, priority 2008, dated 2017) are described below.

Each structure is given as a SMILES string. pIC50: −log10 of the molar value. Some results are limits rather than exact numbers.

This assay has as its system J774 macrophages. The assay can be described thus: Alamar Blue macrophage J774 viability assay. The class given is cell-based. The conditions noted are these: Mus musculus; J774 cells, 72 hours with compound, Alamar Blue readout; read-out: IC50. How it is done:
Initial screening of candidate compounds was performed using in vitro assays to determine potency, metabolic stability and solubility in biologically relevant fluids. Potency was assessed using a viability assay based on the survival of the J774 macrophage cell line. Macrophages are closely related to osteoclasts and have been used previously as a model system for osteoclast survival (see, e.g., Luckman et al., 1998). Like osteoclasts, J774 macrophages are dependent on continued NFκB activation for survival, thereby providing a valuable screen for compounds with anti-inflammatory activity. Metabolic stability was measured by determining the rate of disappearance of compound in the presence of human liver microsomal preparations, as quantified by LC-MS/MS. Solubility was measured by equilibration of the compound in fasted state simulated intestinal fluid (FaSSIF) and quantified by HPLC.
In vitro potency as anti-inflammatory agents was determined for a number of APSAC compounds by incubation with J774 macrophages and subsequent determination of cell viability.
J774 cells were plated at 10^4 cells per well in 100 μL αMEM (α Modified Eagle Medium) in 96-well plates and grown overnight. The next day, test compounds were added to the cultures, and cultures were continued for another 72 hours. At the end of the culture period, cell survival was determined using an Alamar Blue assay as previously described (see, e.g., Nociari et al., 1998).
Alamar Blue is an oxidation-reduction sensitive indicator. The dye itself is in the oxidised state, which is blue and non-fluorescent. The dye can accept electrons from reducing species, such as NADPH and FADH, to form a reduced dye species, which is red and fluorescent. Thus the transformation from oxidised form to reduced form can be measured by fluorimetric or colourimetric means. For fluorescence measurements, 530-560 nm excitation and 590 nm emission wavelengths are typically used. For colourimetric measurements, absorbance at 570 nm (reduced form) and 600 nm (oxidised form) is typically measured. A simple calculation is performed to determine the relative quantities of the two species.
A high ratio of the reducing species, NADPH and FADH, to the corresponding oxidised species, NADP and FAD, is an indicator that cells are proliferating and viable. A low ratio indicates cells that are quiescent or non-viable.
Briefly, Alamar Blue (Biosource International) was added undiluted to the each well (1:10 v/v, 10 μL). The plate was incubated at 37° C. for 3-4 hours and the fluorescence was measured at 590 nm, with a 25 nm bandwidth. A high reading indicated cells with normal viability, and a low reading indicated cells that have been damaged and are no longer proliferating normally. The controls gave a high fluorescence reading, indicating a high number of live, healthy cells. A potent test compound gave a low fluorescence reading. The average results for each test compound (n=5) were expressed as a percent (%) of the average control value.
Addition of Compounds. All of the compounds studied were made up as 100 mM solutions in DMSO. These stock solutions were then diluted 1000-10000× in culture medium (αMEM). From these 100 μM or 10 μM solutions, convenient quantities (3-33 μL) were added directly to the wells so as to give the desired final compound concentration.
On the technique in general: The colour change of resazurin is a common sign of viable cells or microbes.
A word on the pIC50: it is the negative decadic logarithm of the IC50, by convention in mol/L. `O=S(=O)(Nc1ccc(CO)cc1)c1ccc(-c2ccc(F)cc2F)cc1` [ABD466, 2′,4′-difluoro-biphenyl-4-sulfonic acid (4-hydroxymethyl-phenyl)-amide, reference compound]: the negative logarithm of the IC50 (pIC50) is 5.52. Under `O=S(=O)(N[C@H]1CC[C@H](O)CC1)c1ccc(-c2ccc(OC(F)(F)F)cc2)c(F)c1` [ABD665, 2-Fluoro-N-(trans-4-hydroxycyclohexyl)-4′-(trifluoromethoxy)biphenyl-4-sulfonamide] stands 5.31; under `O=S(=O)(N[C@H]1CC[C@H](O)CC1)c1ccc(-c2ccc(F)cc2F)cc1Cl` [ABD705, 3-Chloro-2′,4′-difluoro-N-(trans-4-hydroxycyclohexyl)biphenyl-4-sulfonamide], 6.08. Under `COc1ccc(-c2ccc(S(=O)(=O)N[C@H]3CC[C@H](O)CC3)cc2F)cc1` [ABD710, 2-Fluoro-N-(trans-4-hydroxycyclohexyl)-4′-methoxybiphenyl-4-sulfonamide] stands 5.70; under `O=S(=O)(N[C@H]1CC[C@H](O)CC1)c1ccc(-c2ccc(Cl)c(C(F)(F)F)c2)cc1` [ABD712, 4′-Chloro-N-(trans-4-hydroxycyclohexyl)-3′-(trifluoromethyl)biphenyl-4-sulfonamide], 5.26.

Turning to `N#Cc1ccc(-c2ccc(S(=O)(=O)N[C@H]3CC[C@H](O)CC3)c(Cl)c2)cc1` [ABD732, 3-Chloro-4′-cyano-N-(trans-4-hydroxycyclohexyl)biphenyl-4-sulfonamide], the negative logarithm of the IC50 (pIC50) was 5.36.

With `Cc1cc(S(=O)(=O)N[C@H]2CC[C@H](O)CC2)ccc1-c1ccc(F)cc1F` [ABD735, 2′,4′-Difluoro-N-(trans-4-hydroxycyclohexyl)-2-methylbiphenyl-4-sulfonamide], the pIC50 is 7.05. To `Cc1cc(S(=O)(=O)N[C@H]2CC[C@H](O)CC2)ccc1-c1ccc(OC(F)(F)F)cc1` [ABD742, N-(trans-4-Hydroxycyclohexyl)-2-methyl-4′-(trifluoromethoxy)biphenyl-4-sulfonamide] belongs 6.11; to `O=S(=O)(N[C@H]1CC[C@H](O)CC1)c1ccc(-c2ccc(Cl)cc2Cl)cc1OC(F)(F)F` [ABD756, 2′,4′-Dichloro-N-(trans-4-hydroxycyclohexyl)-3-(trifluoromethoxy)biphenyl-4-sulfonamide], 5.66; to `CNC1CCC(NS(=O)(=O)c2ccc(-c3ccc(F)cc3F)cc2)CC1` (stereo not shown) [ABD816, 2′,4′-Difluoro-N-(4-(methylamino)cyclohexyl)biphenyl-4-sulfonamide], 6.10. To `CCNC1CCC(NS(=O)(=O)c2ccc(-c3ccc(F)cc3F)cc2)CC1` (stereo not shown) [ABD817, N-(4-(Ethylamino)cyclohexyl)-2′,4′-difluorobiphenyl-4-sulfonamide] belongs above 6.00.

Consider `CCN(CC)C1CCC(NS(=O)(=O)c2ccc(-c3ccc(F)cc3F)cc2)CC1` (stereo not shown) [ABD819, N-(4-(Diethylamino)cyclohexyl)-2′,4′-difluorobiphenyl-4-sulfonamide], for which the pIC50 is 5.62. To `O=S(=O)(NC1CCC(N2CCCC2)CC1)c1ccc(-c2ccc(F)cc2F)cc1` (stereo not shown) [ABD820, 2′,4′-Difluoro-N-(4-(pyrrolidin-1-yl)cyclohexyl)biphenyl-4-sulfonamide] belongs 5.60. On to `O=S(=O)(NC1CCC(N2CCOCC2)CC1)c1ccc(-c2ccc(F)cc2F)cc1` (stereo not shown) [ABD821, 2′,4′-Difluoro-N-(4-morpholinocyclohexyl)biphenyl-4-sulfonamide], for which the negative-log IC50 (pIC50) is below 5.00. To `CCN(C)C1CCC(NS(=O)(=O)c2ccc(-c3ccc(F)cc3F)cc2)CC1` (stereo not shown) [ABD822, N-(4-(Ethyl(methyl)amino)cyclohexyl)-2′,4′-difluorobiphenyl-4-sulfonamide] belongs 5.16.

For `CNC[C@H]1CC[C@@H](NS(=O)(=O)c2ccc(-c3ccc(F)cc3F)cc2)CC1` [ABD824, 2′,4′-Difluoro-N-(cis-4-((methylamino)methyl)cyclohexyl)biphenyl-4-sulfonamide], the negative-log IC50 (pIC50) was 5.14.
